Read-outs that look alike come from different tables or passages of the source.
Target: T1, rat steroid 17-20 lyase (Rattus norvegicus, UniProt P11715)
T1 construct: Testes were excised from ten-week-old male Wistar rats, homogenized and then centrifuged to give microsomes; from tissue; host or cells: testis microsomes of ten-week-old male Wistar rats
T1 sequence (P11715 1-507): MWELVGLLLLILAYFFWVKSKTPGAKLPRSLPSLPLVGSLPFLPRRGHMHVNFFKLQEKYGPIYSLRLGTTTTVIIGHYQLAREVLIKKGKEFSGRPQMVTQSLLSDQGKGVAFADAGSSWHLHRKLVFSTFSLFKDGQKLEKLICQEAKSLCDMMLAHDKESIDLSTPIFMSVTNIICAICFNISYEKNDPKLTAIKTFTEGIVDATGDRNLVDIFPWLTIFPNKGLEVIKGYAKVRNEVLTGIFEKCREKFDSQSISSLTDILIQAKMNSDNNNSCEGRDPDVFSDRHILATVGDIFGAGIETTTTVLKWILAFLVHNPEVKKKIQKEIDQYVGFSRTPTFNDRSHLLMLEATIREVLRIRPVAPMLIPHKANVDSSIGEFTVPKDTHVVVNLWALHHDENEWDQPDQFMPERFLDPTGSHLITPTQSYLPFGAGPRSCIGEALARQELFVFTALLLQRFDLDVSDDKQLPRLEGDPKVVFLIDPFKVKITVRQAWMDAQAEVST
Assay: Measurement of inhibition of rat steroid 17-20 lyase activity [in vitro]
Type: biochemical
Protocol: (1) Measurement of inhibition of rat steroid 17-20 lyase activity [in vitro]
This was carried out in accordance with the method described in J. Steroid Biochem., Vol.33, No.6, 1191-1195 (1989).
Testes were excised from ten-week-old male Wistar rats, homogenized and then centrifuged to give microsomes. The microsomal protein (50 µg), 1 µM of [1,2-^3H]-17α-hydroxyprogesterone (5.55 × 10^5 dpm) and a test compound were dissolved in 100 µl of 50 mM phosphate buffer (pH 7.4), NADPH solution was added, and then the mixture was incubated at 37°C for 60 minutes. Then, 400 µl of a mixed solution of methanol and tetrahydrofuran (2:3) was added, and the mixture was subjected to centrifugation, and then radioactivities of the substrate and the formed product (androstenedione and testosterone) in the resulting supernatant were measured by a high performance liquid chromatography (HPLC) equipped with a radioisotope detector to examine the activity of the test compound to inhibit steroid 17-20 lyase.

IC50 (rat testis microsomes (50 µg protein), 1 µM [1,2-3H]-17α-hydroxyprogesterone, NADPH, pH 7.4, 37°C, 60 minutes, HPLC, read-out: Inhibition of steroid 17-20 lyase activity IC50) [nM] | SMILES | IC50 [nM]
12.7 | Fc1ccc2c(c1)[nH]c1cc(Cc3cccnc3)ccc12 [Control compound, reference compound] | 
 | CC(c1ccc2c(c1)[nH]c1ccccc12)c1c[nH]cn1 (stereo not drawn) [Example 1e, 2-[1-(1H-Imidazol-4-yl)ethyl]-9H-carbazole] | 3.9
 | CCCn1cncc1Cc1ccc2c(c1)[nH]c1ccccc12 [Example 13, 2-[(1-Propyl-1H-imidazol-5-yl)methyl]-9H-carbazole] | 2.5

Reference: patent EP0820989A1, “IMIDAZOLE DERIVATIVES AND MEDICINAL COMPOSITION THEREOF” (YAMANOUCHI PHARMACEUTICAL CO., LTD., priority 1995, dated 1996)
